Columns and labels:
B2 bradykinin receptor = biological target: T1, B2 bradykinin receptor (Homo sapiens, UniProt P30411); format: cell membranes, Membrane; details: chem-1; note: in other assays of this panel Not Active means under 50% inhibition at 10 µM
T1 sequence (P30411 whole entry): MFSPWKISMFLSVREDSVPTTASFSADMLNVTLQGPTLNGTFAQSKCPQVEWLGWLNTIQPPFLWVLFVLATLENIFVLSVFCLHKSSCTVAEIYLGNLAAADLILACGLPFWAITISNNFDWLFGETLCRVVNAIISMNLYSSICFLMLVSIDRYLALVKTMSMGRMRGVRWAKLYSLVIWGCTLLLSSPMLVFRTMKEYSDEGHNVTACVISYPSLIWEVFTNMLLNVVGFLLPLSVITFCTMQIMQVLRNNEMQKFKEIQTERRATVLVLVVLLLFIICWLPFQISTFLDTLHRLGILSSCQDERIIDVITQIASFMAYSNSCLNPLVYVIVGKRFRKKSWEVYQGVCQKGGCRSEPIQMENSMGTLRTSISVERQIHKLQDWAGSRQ

[1] = biological target: T2, Cholecystokinin receptor type A (Homo sapiens, UniProt P32238); format: cell membranes, Membrane; details: 1321-n1; note: in other assays of this panel Not Active means under 50% inhibition at 10 µM
T2 sequence (P32238 whole entry): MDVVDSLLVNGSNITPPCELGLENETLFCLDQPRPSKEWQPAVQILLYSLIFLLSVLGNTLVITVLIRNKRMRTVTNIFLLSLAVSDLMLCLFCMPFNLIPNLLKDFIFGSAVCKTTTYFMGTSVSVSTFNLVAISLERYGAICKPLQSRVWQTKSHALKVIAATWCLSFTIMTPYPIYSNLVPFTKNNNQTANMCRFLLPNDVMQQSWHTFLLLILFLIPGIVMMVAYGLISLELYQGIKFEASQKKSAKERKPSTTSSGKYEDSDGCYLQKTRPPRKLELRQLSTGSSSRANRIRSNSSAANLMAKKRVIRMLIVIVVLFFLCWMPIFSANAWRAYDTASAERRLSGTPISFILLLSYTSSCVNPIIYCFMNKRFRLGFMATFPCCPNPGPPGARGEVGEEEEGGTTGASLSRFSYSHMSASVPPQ

[2] = DRUGMATRIX: Sodium/nucleoside co-transporter radioligand binding (ligand: nitrobenzylthioinosine); format: cell membranes, Cavia porcellus, Dunkin-Hartley, Cerebral cortex, Membrane; details: Not Active = under 50% inhibition at 10 µM
[3] = biological target: T3, Vasoactive intestinal polypeptide receptor 1 (Homo sapiens, UniProt P32241); format: cell membranes, Membrane; details: ht-29; note: in other assays of this panel Not Active means under 50% inhibition at 10 µM
T3 sequence (P32241 whole entry): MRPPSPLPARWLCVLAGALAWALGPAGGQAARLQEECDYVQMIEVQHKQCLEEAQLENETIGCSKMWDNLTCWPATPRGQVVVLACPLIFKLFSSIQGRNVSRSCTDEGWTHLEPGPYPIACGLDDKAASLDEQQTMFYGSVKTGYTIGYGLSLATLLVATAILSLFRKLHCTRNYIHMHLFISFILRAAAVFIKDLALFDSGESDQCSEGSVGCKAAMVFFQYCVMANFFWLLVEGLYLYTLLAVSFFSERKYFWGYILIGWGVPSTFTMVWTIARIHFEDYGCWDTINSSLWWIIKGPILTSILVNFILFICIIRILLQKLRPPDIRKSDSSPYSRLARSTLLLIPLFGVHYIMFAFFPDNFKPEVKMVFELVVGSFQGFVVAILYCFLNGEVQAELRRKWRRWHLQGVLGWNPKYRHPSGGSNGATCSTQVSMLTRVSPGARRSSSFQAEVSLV

[4] = DRUGMATRIX: Phorbol Ester radioligand binding (ligand: [3H] PDBu); format: cell membranes, Mus musculus, ICR, Brain, Membrane; details: Not Active = under 50% inhibition at 10 µM
[5] = biological target: T4, Neuropeptide Y receptor type 2 (Homo sapiens, UniProt P49146); format: cell membranes, Membrane; details: kan-ts; note: in other assays of this panel Not Active means under 50% inhibition at 10 µM
T4 sequence (P49146 whole entry): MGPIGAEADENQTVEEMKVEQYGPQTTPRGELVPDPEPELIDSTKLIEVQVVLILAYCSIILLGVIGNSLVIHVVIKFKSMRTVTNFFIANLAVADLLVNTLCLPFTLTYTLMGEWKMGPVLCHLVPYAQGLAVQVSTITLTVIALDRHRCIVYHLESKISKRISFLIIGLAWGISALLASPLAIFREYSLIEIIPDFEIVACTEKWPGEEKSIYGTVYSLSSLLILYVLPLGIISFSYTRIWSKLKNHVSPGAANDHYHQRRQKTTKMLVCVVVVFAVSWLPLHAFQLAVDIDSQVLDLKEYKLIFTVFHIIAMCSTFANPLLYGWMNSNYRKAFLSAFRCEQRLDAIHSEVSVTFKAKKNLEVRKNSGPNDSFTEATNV

Adenosine receptor A2a = Adenosine receptor A2a (Homo sapiens, UniProt P29274); experiment: DRUGMATRIX: Adenosine A2A radioligand binding (ligand: […]); format: cell membranes, HEK293, Membrane; details: hek293; Not Active = under 50% inhibition at 10 µM
[6] = DRUGMATRIX: Atrial Natriuretic Factor (ANF) radioligand binding (ligand: [125I] ANF (rat)); format: cell membranes, Cavia porcellus, Dunkin-Hartley, Adrenal gland, Membrane; details: Not Active = under 50% inhibition at 10 µM
Neutrophil elastase = biological target: T5, Neutrophil elastase (Homo sapiens, UniProt P08246); format: tissue-based
T5 sequence (P08246 whole entry): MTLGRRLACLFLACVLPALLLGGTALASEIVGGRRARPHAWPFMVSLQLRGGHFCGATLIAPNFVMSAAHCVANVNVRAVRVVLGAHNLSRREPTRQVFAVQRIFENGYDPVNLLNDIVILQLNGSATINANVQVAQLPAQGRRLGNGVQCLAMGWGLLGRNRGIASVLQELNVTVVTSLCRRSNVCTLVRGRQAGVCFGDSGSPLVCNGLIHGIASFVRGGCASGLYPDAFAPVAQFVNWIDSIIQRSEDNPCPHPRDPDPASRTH

Sequence of Adenosine receptor A2a (P29274 whole entry): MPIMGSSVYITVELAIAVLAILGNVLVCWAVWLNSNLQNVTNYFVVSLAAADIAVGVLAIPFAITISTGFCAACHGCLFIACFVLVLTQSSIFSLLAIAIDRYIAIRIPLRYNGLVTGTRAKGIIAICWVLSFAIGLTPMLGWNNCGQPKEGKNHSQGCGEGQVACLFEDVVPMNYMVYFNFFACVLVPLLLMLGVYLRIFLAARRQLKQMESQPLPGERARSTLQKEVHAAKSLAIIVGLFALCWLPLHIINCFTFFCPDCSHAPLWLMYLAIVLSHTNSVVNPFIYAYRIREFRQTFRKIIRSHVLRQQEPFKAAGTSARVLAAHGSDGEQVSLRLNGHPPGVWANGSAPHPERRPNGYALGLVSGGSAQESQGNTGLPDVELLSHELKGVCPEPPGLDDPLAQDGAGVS

Cc1nnc(NS(=O)(=O)c2ccc(N)cc2)s1 [SULFAMETHIZOLE]
Not Active: IC50 (B2 bradykinin receptor) | IC50 [1] | IC50 [2] | Ki [2] | IC50 [3] | IC50 [4] | Ki [4] | IC50 [5] | IC50 (Adenosine receptor A2a) | IC50 [6] | Ki [6] | IC50 (Neutrophil elastase)

CC(=O)O[C@]1(C(C)=O)CC[C@H]2[C@@H]3C[C@H](C)C4=CC(=O)CC[C@]4(C)[C@H]3CC[C@@]21C [MEDROXYPROGESTERONE ACETATE]
Not Active: IC50 (B2 bradykinin receptor) | IC50 [1] | IC50 [2] | Ki [2] | IC50 [3] | IC50 [4] | Ki [4] | IC50 [5] | IC50 (Adenosine receptor A2a) | IC50 [6] | Ki [6] | IC50 (Neutrophil elastase)

CC1(C)[C@H](C(=O)O)N2C(=O)C[C@H]2S1(=O)=O [SULBACTAM]
Not Active: IC50 (B2 bradykinin receptor) | IC50 [1] | IC50 [2] | Ki [2] | IC50 [3] | IC50 [4] | Ki [4] | IC50 [5] | IC50 (Adenosine receptor A2a) | IC50 [6] | Ki [6] | IC50 (Neutrophil elastase)

O=C(O)c1cc(/N=N/c2ccc(S(=O)(=O)Nc3ccccn3)cc2)ccc1O [SULFASALAZINE]
Not Active: IC50 (B2 bradykinin receptor) | IC50 [1] | IC50 [2] | Ki [2] | IC50 [3] | IC50 [4] | Ki [4] | IC50 [5] | IC50 (Adenosine receptor A2a) | IC50 [6] | Ki [6] | IC50 (Neutrophil elastase)

CCN(CC)CCNC(=O)c1cc(Cl)c(N)cc1OC [METOCLOPRAMIDE]
Not Active: IC50 (B2 bradykinin receptor) | IC50 [1] | IC50 [2] | Ki [2] | IC50 [3] | IC50 [4] | Ki [4] | IC50 [5] | IC50 (Adenosine receptor A2a) | IC50 [6] | Ki [6] | IC50 (Neutrophil elastase)

COC(=O)Nc1nc2ccc(C(=O)c3ccccc3)cc2[nH]1 [MEBENDAZOLE]
Not Active: IC50 (B2 bradykinin receptor) | IC50 [1] | IC50 [2] | Ki [2] | IC50 [3] | IC50 [4] | Ki [4] | IC50 [5] | IC50 (Adenosine receptor A2a) | IC50 [6] | Ki [6] | IC50 (Neutrophil elastase)

Cc1ccnc(NS(=O)(=O)c2ccc(N)cc2)n1 [SULFAMERAZINE]
Not Active: IC50 (B2 bradykinin receptor) | IC50 [1] | IC50 [2] | Ki [2] | IC50 [3] | IC50 [4] | Ki [4] | IC50 [5] | IC50 (Adenosine receptor A2a) | IC50 [6] | Ki [6] | IC50 (Neutrophil elastase)

Cc1cccc(C)c1NC(=O)C(C)N (configuration not stated) [TOCAINIDE]
Not Active: IC50 (B2 bradykinin receptor) | IC50 [1] | IC50 [2] | Ki [2] | IC50 [3] | IC50 [4] | Ki [4] | IC50 [5] | IC50 (Adenosine receptor A2a) | IC50 [6] | Ki [6] | IC50 (Neutrophil elastase)

CC#C[C@]1(O)CC[C@H]2[C@@H]3CCC4=CC(=O)CCC4=C3[C@@H](c3ccc(N(C)C)cc3)C[C@@]21C [MIFEPRISTONE]
Not Active: IC50 (B2 bradykinin receptor) | IC50 [1] | IC50 [2] | Ki [2] | IC50 [3] | IC50 [4] | Ki [4] | IC50 [5] | IC50 (Adenosine receptor A2a) | IC50 [6] | Ki [6] | IC50 (Neutrophil elastase)

C[C@]12CCC(=O)C[C@@H]1CC[C@@H]1[C@@H]2CC[C@]2(C)[C@@H](O)CC[C@@H]12 [STANOLONE]
Not Active: IC50 (B2 bradykinin receptor) | IC50 [1] | IC50 [2] | Ki [2] | IC50 [3] | IC50 [4] | Ki [4] | IC50 [5] | IC50 (Adenosine receptor A2a) | IC50 [6] | Ki [6] | IC50 (Neutrophil elastase)

C1CCN2C[C@@H]3C[C@@H](CN4CCCC[C@@H]34)[C@H]2C1 [SPARTEINE]
Not Active: IC50 (B2 bradykinin receptor) | IC50 [1] | IC50 [2] | Ki [2] | IC50 [3] | IC50 [4] | Ki [4] | IC50 [5] | IC50 (Adenosine receptor A2a) | IC50 [6] | Ki [6] | IC50 (Neutrophil elastase)

— ChEMBL document CHEMBL1909046, “DrugMatrix in vitro pharmacology data”
